In the NIST ThermoML archive (doi:10.1016/j.tca.2016.08.008):
± gives the expanded uncertainty stated by the source.

Test: molar heat capacity at constant pressure
Conditions: 101.33 kPa, Metastable crystal, Vacuum adiabatic calorimetry

O=P([O-])([O-])[O-].[Tb+3] [terbium orthophosphate]
Conditions | molar heat capacity at constant pressure [J/K/mol]
7 K | 0.2233 ± 0.014
8 K | 0.3348 ± 0.019
8.48 K | 0.404 ± 0.027
9 K | 0.4742 ± 0.026
9.05 K | 0.511 ± 0.033
9.71 K | 0.655 ± 0.042
10 K | 0.6496 ± 0.035
10.37 K | 0.779 ± 0.049
11.05 K | 0.934 ± 0.058
11.74 K | 1.116 ± 0.069
12 K | 1.115 ± 0.057
12.45 K | 1.328 ± 0.082
13.16 K | 1.551 ± 0.095
13.89 K | 1.784 ± 0.11
14 K | 1.738 ± 0.089
14.62 K | 2.037 ± 0.12
15.36 K | 2.349 ± 0.14
16 K | 2.51 ± 0.13
16.12 K | 2.666 ± 0.16
16.88 K | 2.985 ± 0.18
17.64 K | 3.316 ± 0.2
18 K | 3.404 ± 0.17
18.41 K | 3.69 ± 0.22
19.18 K | 4.058 ± 0.24
19.96 K | 4.44 ± 0.27
20 K | 4.388 ± 0.22
21.2 K | 5.035 ± 0.11
22.67 K | 5.753 ± 0.12
24.17 K | 6.522 ± 0.14
25 K | 7.043 ± 0.14
25.69 K | 7.302 ± 0.15
27.22 K | 8.099 ± 0.17
28.76 K | 8.951 ± 0.18
30 K | 9.779 ± 0.2
30.31 K | 9.817 ± 0.2
31.87 K | 10.74 ± 0.22
33.44 K | 11.64 ± 0.24
35 K | 12.55 ± 0.26
35.02 K | 12.43 ± 0.25
36.6 K | 13.44 ± 0.27
38.18 K | 14.4 ± 0.29
39.77 K | 15.33 ± 0.31
40 K | 15.41 ± 0.31
41.38 K | 16.26 ± 0.2
42.98 K | 17.22 ± 0.21
44.6 K | 18.17 ± 0.23
45 K | 18.37 ± 0.19
46.24 K | 19.19 ± 0.24
47.86 K | 20.2 ± 0.25
49.48 K | 21.22 ± 0.26
50 K | 21.44 ± 0.22
51.11 K | 22.24 ± 0.27
52.74 K | 23.26 ± 0.29
54.37 K | 24.23 ± 0.3
55 K | 24.56 ± 0.25
56 K | 25.23 ± 0.31
57.64 K | 26.25 ± 0.32
59.28 K | 27.25 ± 0.33
60 K | 27.69 ± 0.29
60.93 K | 28.25 ± 0.35
62.57 K | 29.31 ± 0.36
64.22 K | 30.35 ± 0.37
65.88 K | 31.35 ± 0.38
67.53 K | 32.33 ± 0.4
69.19 K | 33.27 ± 0.41
70 K | 33.8 ± 0.35
71.05 K | 34.29 ± 0.42
73.13 K | 35.52 ± 0.43
75.2 K | 36.74 ± 0.45
77.26 K | 38.04 ± 0.46
79.33 K | 39.29 ± 0.48
80 K | 39.56 ± 0.4
81.4 K | 40.39 ± 0.49
83.47 K | 41.31 ± 0.5
83.73 K | 41.32 ± 0.5
85.54 K | 42.27 ± 0.52
85.78 K | 42.39 ± 0.52
87.61 K | 43.75 ± 0.53
87.83 K | 43.95 ± 0.54
89.69 K | 44.86 ± 0.55
89.89 K | 45.03 ± 0.55
90 K | 44.91 ± 0.48
91.76 K | 45.8 ± 0.58
91.94 K | 46.03 ± 0.58
93.84 K | 46.75 ± 0.59
94 K | 47.04 ± 0.59
95.93 K | 47.75 ± 0.6
96.06 K | 48.09 ± 0.6
98.01 K | 48.74 ± 0.61
98.12 K | 49.05 ± 0.61
100 K | 49.89 ± 0.53
100.09 K | 49.85 ± 0.62
100.18 K | 50.06 ± 0.63
102.79 K | 51.27 ± 0.64
102.86 K | 51.16 ± 0.64
106.14 K | 52.71 ± 0.66
109.43 K | 54.24 ± 0.68
110 K | 54.53 ± 0.57
112.71 K | 55.74 ± 0.69
116.01 K | 57.18 ± 0.71
119.3 K | 58.57 ± 0.73
120 K | 58.89 ± 0.62
122.6 K | 59.95 ± 0.74
125.9 K | 61.32 ± 0.76
129.2 K | 62.65 ± 0.77
130 K | 63 ± 0.66
132.49 K | 63.94 ± 0.79
135.79 K | 65.24 ± 0.81
139.09 K | 66.54 ± 0.82
140 K | 66.91 ± 0.7
142.39 K | 67.77 ± 0.84
145.69 K | 69.04 ± 0.85
148.98 K | 70.3 ± 0.87
150 K | 70.62 ± 0.73
152.28 K | 71.55 ± 0.88
155.57 K | 72.72 ± 0.89
158.87 K | 73.84 ± 0.91
160 K | 74.17 ± 0.77
162.16 K | 74.93 ± 0.92
165.45 K | 76.02 ± 0.93
168.73 K | 77.12 ± 0.95
170 K | 77.56 ± 0.8
172.02 K | 78.29 ± 0.96
175.28 K | 79.23 ± 0.97
178.56 K | 80.19 ± 0.98
180 K | 80.8 ± 0.83
181.84 K | 81.29 ± 1
185.11 K | 82.39 ± 1
188.38 K | 83.45 ± 1
190 K | 83.89 ± 0.86
191.65 K | 84.37 ± 1
194.92 K | 85.28 ± 1
198.18 K | 86.29 ± 1.1
200 K | 86.85 ± 0.89
201.43 K | 87.36 ± 1.1
205.1 K | 88.44 ± 1.1
209.15 K | 89.46 ± 1.1
210 K | 89.66 ± 0.92
213.21 K | 90.54 ± 1.1
217.26 K | 91.68 ± 1.1
220 K | 92.36 ± 0.95
221.31 K | 92.89 ± 1.1
225.34 K | 93.96 ± 1.1
229.34 K | 95.06 ± 1.2
230 K | 94.92 ± 0.97
233.27 K | 95.82 ± 1.2
237.28 K | 96.8 ± 1.2
240 K | 97.37 ± 1
241.28 K | 97.76 ± 1.2
245.26 K | 98.58 ± 1.2
249.23 K | 99.5 ± 1.2
250 K | 99.7 ± 1
253.16 K | 100.4 ± 1.2
257.1 K | 101.2 ± 1.2
260 K | 101.9 ± 1
260.99 K | 102.1 ± 1.2
264.86 K | 102.9 ± 1.3
268.76 K | 103.8 ± 1.3
270 K | 104 ± 1.1
272.6 K | 104.6 ± 1.3
276.41 K | 105.3 ± 1.3
280 K | 106 ± 1.1
280.2 K | 105.9 ± 1.3
283.96 K | 106.6 ± 1.3
287.7 K | 107.3 ± 1.3
290 K | 107.9 ± 1.1
